Active and inactive are the calls of the source. The rule behind the calls is not given here.
Assays:
[1] = tested on: Tyrosine-protein kinase ABL1 (Homo sapiens), P00519 [E255K]; experiment: Inhibition of phosphorylated ABL1 E255K mutant (unknown origin) assessed as remaining activity at 1 uM by Kinome scan method relative to control
[2] = biological target: Ribosomal protein S6 kinase alpha-1 (Homo sapiens) (UniProt Q15418); experiment: Inhibition of C-terminal kinase domain RSK1 (unknown origin) assessed as remaining activity at 1 uM by Kinome scan method relative to control
Ribosomal protein S6 kinase alpha-1 (Homo sapiens), sequence (Q15418 whole entry, the tested form may be a part): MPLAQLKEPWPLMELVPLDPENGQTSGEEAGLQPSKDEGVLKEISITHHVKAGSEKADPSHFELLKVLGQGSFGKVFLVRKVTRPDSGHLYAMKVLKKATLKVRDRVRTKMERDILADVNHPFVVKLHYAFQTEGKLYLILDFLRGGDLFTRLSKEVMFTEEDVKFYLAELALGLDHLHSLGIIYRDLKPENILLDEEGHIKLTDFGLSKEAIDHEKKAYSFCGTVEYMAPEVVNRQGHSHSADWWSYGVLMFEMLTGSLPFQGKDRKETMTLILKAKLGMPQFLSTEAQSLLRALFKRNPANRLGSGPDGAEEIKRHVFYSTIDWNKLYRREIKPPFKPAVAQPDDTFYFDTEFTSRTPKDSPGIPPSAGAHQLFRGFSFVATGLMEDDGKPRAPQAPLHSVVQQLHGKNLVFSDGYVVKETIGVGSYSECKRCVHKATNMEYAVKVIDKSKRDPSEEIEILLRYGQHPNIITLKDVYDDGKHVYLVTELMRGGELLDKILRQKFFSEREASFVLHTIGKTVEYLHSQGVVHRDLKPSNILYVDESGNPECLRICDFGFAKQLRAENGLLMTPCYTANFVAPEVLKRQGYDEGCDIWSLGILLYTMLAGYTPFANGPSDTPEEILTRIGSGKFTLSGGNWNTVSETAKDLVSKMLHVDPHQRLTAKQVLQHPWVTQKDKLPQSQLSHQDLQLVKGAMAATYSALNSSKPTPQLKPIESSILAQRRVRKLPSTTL

[3] = biological target: Dual specificity mitogen-activated protein kinase kinase 2 (Homo sapiens) (UniProt P36507); experiment: Inhibition of MEK2 (unknown origin) assessed as remaining activity at 1 uM by Kinome scan method relative to control
Dual specificity mitogen-activated protein kinase kinase 2 (Homo sapiens), sequence (P36507 whole entry): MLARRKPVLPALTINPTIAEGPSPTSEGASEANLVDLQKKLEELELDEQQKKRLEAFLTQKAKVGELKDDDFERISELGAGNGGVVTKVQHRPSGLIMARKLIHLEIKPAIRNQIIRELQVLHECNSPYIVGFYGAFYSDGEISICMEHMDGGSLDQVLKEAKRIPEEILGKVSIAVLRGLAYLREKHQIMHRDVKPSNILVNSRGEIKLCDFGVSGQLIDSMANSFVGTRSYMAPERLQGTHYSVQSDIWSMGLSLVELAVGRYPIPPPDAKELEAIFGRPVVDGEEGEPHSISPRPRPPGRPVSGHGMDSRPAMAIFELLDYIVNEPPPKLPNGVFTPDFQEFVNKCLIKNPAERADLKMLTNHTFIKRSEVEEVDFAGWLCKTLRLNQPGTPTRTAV

[4] = Inhibition of PI3K/AKT/mTOR signalling pathway in human RV-1 cells assessed as decrease in AKT phosphorylation at S473 residue at 2.5 uM incubated for 4 hrs by immunoblot analysis; format: cell-based
[5] = biological target: Serine/threonine-protein kinase BRSK2 (Homo sapiens) (UniProt Q8IWQ3); experiment: Inhibition of BRSK2 (unknown origin) assessed as remaining activity at 1 uM by Kinome scan method relative to control
[6] = biological target: Serine/threonine-protein kinase pim-3 (Homo sapiens) (UniProt Q86V86); experiment: Inhibition of PIM3 (unknown origin) assessed as remaining activity at 1 uM by Kinome scan method relative to control
[7] = biological target: Phosphorylase b kinase gamma catalytic chain, skeletal muscle/heart isoform (Homo sapiens) (UniProt Q16816); experiment: Inhibition of PHKG1 (unknown origin) assessed as remaining activity at 1 uM by Kinome scan method relative to control
[8] = Inhibition of PI3K/AKT/mTOR signalling pathway in human RV-1 cells assessed as decrease in PRAS40 phosphorylation at T246 residue at 2.5 uM incubated for 4 hrs by immunoblot analysis; format: cell-based
[9] = tested on: Proto-oncogene tyrosine-protein kinase receptor Ret (Homo sapiens), P07949 [V804M]; experiment: Inhibition of RET V804M (unknown origin) assessed as remaining activity at 1 uM by Kinome scan method relative to control
[10] = tested on: LNCaP C4-2; experiment: Antiproliferative activity against human C4-2 cells assessed growth inhibition incubated for 2 to 5 days by CellTiter-Glo assay; format: functional; settings: time 2-5 day
[11] = biological target: Macrophage colony-stimulating factor 1 receptor (Homo sapiens) (UniProt P07333); experiment: Inhibition of CSF1R (unknown origin) assessed as remaining activity at 1 uM by Kinome scan method relative to control
Macrophage colony-stimulating factor 1 receptor (Homo sapiens), sequence (P07333 whole entry): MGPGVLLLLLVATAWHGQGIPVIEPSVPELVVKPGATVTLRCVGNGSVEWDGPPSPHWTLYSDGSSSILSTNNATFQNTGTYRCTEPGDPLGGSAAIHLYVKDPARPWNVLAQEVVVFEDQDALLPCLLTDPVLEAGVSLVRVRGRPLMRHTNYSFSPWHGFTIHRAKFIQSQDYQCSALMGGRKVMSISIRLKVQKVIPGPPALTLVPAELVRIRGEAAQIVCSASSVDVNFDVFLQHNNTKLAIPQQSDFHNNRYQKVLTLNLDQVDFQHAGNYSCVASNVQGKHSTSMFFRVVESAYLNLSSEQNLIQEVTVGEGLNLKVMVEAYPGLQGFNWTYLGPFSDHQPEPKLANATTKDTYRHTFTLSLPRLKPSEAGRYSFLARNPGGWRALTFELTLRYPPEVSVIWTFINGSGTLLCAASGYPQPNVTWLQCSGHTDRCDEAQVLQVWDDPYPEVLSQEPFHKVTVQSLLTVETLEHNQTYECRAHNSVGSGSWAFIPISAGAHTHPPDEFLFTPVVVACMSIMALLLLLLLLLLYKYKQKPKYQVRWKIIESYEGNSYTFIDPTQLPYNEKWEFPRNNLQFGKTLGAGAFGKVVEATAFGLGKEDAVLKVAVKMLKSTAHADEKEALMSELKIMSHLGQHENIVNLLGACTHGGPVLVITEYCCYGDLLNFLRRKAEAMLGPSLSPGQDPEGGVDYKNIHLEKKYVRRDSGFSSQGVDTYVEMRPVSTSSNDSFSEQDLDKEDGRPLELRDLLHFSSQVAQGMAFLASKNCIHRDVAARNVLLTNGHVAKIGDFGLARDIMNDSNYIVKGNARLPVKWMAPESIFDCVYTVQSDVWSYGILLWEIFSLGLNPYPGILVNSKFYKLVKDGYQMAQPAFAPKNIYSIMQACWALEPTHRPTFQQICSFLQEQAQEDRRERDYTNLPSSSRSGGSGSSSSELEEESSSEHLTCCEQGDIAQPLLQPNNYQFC

[12] = tested on: Tyrosine-protein kinase ABL1 (Homo sapiens), P00519 [F317I]; experiment: Inhibition of ABL1 F317I mutant (unknown origin) assessed as remaining activity at 1 uM by Kinome scan method relative to control
[13] = biological target: Proto-oncogene tyrosine-protein kinase Src (Homo sapiens) (UniProt P12931); experiment: Inhibition of SRC (unknown origin) assessed as remaining activity at 1 uM by Kinome scan method relative to control
[14] = biological target: Mitogen-activated protein kinase 1 (Homo sapiens) (UniProt P28482); experiment: Inhibition of ERK2 (unknown origin) assessed as remaining activity at 1 uM by Kinome scan method relative to control
Mitogen-activated protein kinase 1 (Homo sapiens), sequence (P28482 whole entry): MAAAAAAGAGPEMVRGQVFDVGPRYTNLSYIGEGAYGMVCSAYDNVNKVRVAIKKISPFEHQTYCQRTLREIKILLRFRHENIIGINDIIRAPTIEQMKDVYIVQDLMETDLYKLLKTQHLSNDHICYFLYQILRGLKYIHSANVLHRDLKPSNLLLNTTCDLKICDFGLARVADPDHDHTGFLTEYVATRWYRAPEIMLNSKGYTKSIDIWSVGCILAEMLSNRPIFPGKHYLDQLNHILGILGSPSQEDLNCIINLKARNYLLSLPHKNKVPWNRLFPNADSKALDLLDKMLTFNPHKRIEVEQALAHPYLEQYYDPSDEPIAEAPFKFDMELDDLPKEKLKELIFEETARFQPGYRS

[15] = Induction of cell cycle arrest in human RV-1 cells assessed as accumulation of cells at G2/M phase at 2.5 uM incubated for 5 days in presence of MK2206 by propidium iodide staining based flow cytometric analysis (reference value: 11.4 %); format: functional; settings: time 5 day
[16] = Induction of cell cycle arrest in human RV-1 cells assessed as accumulation of cells at G2/M phase at 2.5 uM incubated for 5 days by propidium iodide staining based flow cytometric analysis (reference value: 11.4 %); format: functional; settings: time 5 day
[17] = biological target: Receptor-type tyrosine-protein kinase FLT3 (Homo sapiens) (UniProt P36888); experiment: Inhibition of FLT3 (unknown origin) assessed as remaining activity at 1 uM by Kinome scan method relative to control
[18] = Induction of cell cycle arrest in human RV-1 cells assessed as accumulation of cells at S phase at 2.5 uM incubated for 5 days by propidium iodide staining based flow cytometric analysis (reference value: 28.9 %); format: functional; settings: time 5 day
[19] = biological target: Protein kinase C delta type (Homo sapiens) (UniProt Q05655); experiment: Inhibition of PRKCD (unknown origin) assessed as remaining activity at 1 uM by Kinome scan method relative to control
[20] = biological target: Platelet-derived growth factor receptor beta (Homo sapiens) (UniProt P09619); experiment: Inhibition of PDGFRbeta (unknown origin) assessed as remaining activity at 1 uM by Kinome scan method relative to control
Platelet-derived growth factor receptor beta (Homo sapiens), sequence (P09619 whole entry): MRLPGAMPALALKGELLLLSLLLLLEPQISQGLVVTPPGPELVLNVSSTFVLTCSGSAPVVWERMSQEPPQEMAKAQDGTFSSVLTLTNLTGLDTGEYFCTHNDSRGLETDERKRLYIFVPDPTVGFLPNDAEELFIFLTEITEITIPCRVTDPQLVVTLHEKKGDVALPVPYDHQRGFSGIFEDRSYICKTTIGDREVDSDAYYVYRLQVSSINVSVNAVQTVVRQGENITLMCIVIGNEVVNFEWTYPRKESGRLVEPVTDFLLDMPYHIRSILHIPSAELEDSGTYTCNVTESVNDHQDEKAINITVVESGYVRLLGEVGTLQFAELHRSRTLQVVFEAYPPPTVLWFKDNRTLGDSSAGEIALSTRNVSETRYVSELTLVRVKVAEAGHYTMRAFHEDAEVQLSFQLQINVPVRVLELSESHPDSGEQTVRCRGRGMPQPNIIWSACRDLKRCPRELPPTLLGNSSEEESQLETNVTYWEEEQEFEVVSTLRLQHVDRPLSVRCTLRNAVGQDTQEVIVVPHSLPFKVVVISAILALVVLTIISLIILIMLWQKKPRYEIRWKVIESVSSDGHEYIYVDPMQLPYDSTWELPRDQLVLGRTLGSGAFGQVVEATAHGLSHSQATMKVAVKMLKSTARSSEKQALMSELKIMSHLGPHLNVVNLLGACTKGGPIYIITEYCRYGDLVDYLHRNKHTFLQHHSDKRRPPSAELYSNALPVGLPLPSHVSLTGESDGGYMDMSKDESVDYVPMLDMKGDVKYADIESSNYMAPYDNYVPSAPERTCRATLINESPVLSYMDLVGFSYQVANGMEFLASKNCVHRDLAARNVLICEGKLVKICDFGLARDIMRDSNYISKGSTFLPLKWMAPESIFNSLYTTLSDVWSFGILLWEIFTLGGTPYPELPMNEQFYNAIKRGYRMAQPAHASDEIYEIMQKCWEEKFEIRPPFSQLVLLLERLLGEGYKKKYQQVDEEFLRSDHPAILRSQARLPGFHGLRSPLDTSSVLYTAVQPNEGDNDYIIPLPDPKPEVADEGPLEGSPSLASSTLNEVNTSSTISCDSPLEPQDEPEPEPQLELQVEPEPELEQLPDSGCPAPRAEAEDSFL

[21] = biological target: Cyclin-G-associated kinase (Homo sapiens) (UniProt O14976); experiment: Inhibition of GAK (unknown origin) assessed as remaining activity at 1 uM by Kinome scan method relative to control
[22] = biological target: Interleukin-1 receptor-associated kinase 4 (Homo sapiens) (UniProt Q9NWZ3); experiment: Inhibition of IRAK4 (unknown origin) assessed as remaining activity at 1 uM by Kinome scan method relative to control
Interleukin-1 receptor-associated kinase 4 (Homo sapiens), sequence (Q9NWZ3 whole entry): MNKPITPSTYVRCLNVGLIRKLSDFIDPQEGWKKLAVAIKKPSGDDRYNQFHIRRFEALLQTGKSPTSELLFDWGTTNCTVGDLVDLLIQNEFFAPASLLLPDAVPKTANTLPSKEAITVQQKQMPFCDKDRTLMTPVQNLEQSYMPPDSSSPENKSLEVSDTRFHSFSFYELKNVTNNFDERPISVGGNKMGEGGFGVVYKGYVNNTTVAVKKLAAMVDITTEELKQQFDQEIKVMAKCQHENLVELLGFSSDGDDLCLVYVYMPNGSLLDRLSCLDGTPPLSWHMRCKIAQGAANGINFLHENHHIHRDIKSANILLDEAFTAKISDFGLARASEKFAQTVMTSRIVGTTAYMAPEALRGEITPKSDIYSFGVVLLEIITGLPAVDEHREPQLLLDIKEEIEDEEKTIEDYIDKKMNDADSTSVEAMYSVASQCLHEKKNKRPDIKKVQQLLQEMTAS

[23] = tested on: Proto-oncogene tyrosine-protein kinase receptor Ret (Homo sapiens), P07949 [V804L]; experiment: Inhibition of RET V804L (unknown origin) assessed as remaining activity at 1 uM by Kinome scan method relative to control
[24] = biological target: Serine/threonine-protein kinase Nek4 (Homo sapiens) (UniProt P51957); experiment: Inhibition of NEK4 (unknown origin) assessed as remaining activity at 1 uM by Kinome scan method relative to control
Serine/threonine-protein kinase Nek4 (Homo sapiens), sequence (P51957 whole entry, looked up): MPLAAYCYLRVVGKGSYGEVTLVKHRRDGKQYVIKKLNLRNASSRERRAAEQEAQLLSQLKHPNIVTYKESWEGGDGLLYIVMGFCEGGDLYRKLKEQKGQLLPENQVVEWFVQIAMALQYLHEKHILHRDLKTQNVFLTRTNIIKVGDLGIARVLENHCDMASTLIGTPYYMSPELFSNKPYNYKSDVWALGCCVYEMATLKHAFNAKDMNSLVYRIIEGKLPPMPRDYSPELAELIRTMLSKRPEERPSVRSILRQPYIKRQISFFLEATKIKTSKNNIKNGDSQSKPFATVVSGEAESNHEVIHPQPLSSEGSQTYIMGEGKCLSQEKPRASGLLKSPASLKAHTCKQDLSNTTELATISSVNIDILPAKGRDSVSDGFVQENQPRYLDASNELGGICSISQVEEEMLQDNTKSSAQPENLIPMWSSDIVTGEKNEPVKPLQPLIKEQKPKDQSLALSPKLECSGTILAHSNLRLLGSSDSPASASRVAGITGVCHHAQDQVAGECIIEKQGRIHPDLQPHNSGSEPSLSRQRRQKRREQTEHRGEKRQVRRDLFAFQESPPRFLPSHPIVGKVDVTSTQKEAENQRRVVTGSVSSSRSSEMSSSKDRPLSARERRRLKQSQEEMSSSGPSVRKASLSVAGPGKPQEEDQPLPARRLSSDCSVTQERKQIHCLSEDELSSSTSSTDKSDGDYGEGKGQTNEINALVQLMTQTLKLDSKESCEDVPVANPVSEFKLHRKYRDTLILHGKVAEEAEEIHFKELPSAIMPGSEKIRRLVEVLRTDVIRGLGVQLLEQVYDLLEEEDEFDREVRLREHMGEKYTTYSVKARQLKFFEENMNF

[25] = Antiproliferative activity against human RV-1 cells assessed growth inhibition incubated for 2 to 5 days by CellTiter-Glo assay; format: functional; settings: time 2-5 day
[26] = biological target: Casein kinase II subunit alpha (Homo sapiens) (UniProt P68400); experiment: Inhibition of CSNK2A1 (unknown origin) assessed as remaining activity at 1 uM by Kinome scan method relative to control
[27] = biological target: Serine/threonine-protein kinase PAK 1 (Homo sapiens) (UniProt Q13153); experiment: Inhibition of PAK1 (unknown origin) assessed as remaining activity at 1 uM by Kinome scan method relative to control
[28] = biological target: Tyrosine-protein kinase ZAP-70 (Homo sapiens) (UniProt P43403); experiment: Inhibition of ZAP70 (unknown origin) assessed as remaining activity at 1 uM by Kinome scan method relative to control
[29] = Inhibition of PI3K/AKT/mTOR signalling pathway in human RV-1 cells assessed as decrease in 4EBP phosphorylation at T37/46 residue at 2.5 uM incubated for 4 hrs by immunoblot analysis; format: cell-based
[30] = biological target: Aurora kinase A (Homo sapiens) (UniProt O14965); experiment: Inhibition of AURKA (unknown origin) assessed as remaining activity at 1 uM by Kinome scan method relative to control
[31] = tested on: RV-1; experiment: Down regulation of BMX protein expression in human RV-1 cells expressing wild type BMX at 5 uM incubated for 72 hrs by western blot analysis; format: functional, cell-based
[32] = tested on: BaF3; experiment: Antiproliferative activity against mouse BaF3 cells expressing TEL-fused JAK2 assessed growth inhibition incubated for 2 to 5 days by CellTiter-Glo assay; format: functional; settings: time 2-5 day
[33] = Induction of cell cycle arrest in human RV-1 cells assessed as accumulation of cells at S phase at 2.5 uM incubated for 5 days in presence of MK2206 by propidium iodide staining based flow cytometric analysis (reference value: 28.9 %); format: functional; settings: time 5 day

C=CC(=O)Nc1cc(-n2c(=O)ccc3cnc4ccc(-c5ccc(NS(C)(=O)=O)cc5)cc4c32)ccc1C
Activity [1]: 63% | Activity [2]: 91% | Activity [3]: 96% | inhibition [4]: inactive | Activity [5]: 84% | Activity [6]: 83% | Activity [7]: 86% | inhibition [8]: inactive | Activity [9]: 85% | GI50 [10]: > 10 µM | Activity [11]: 94% | Activity [12]: 81% | Activity [13]: 92% | Activity [14]: 94% | Activity [15]: 11.5% | Activity [16]: 9.1% | Activity [17]: 80% | Activity [18]: 20.6% | Activity [19]: 41% | Activity [20]: 76% | Activity [21]: 74% | Activity [22]: 84% | Activity [23]: 79% | Activity [24]: 81% | GI50 [25]: 2.53 µM | Activity [26]: 84% | Activity [27]: 86% | Activity [28]: 91% | inhibition [29]: inactive | Activity [30]: 75% | Activity [31]: Active | GI50 [32]: 5.83 µM | Activity [33]: 24.3%
